Source: PubChem BioAssay (NCI)
Where “and” joins values, the source holds several entries; their conditions need not be identical. Equal values may be shown once.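 Protocol summary: plate cells (96-well), add compound at 5 concentrations, incubate 48 h, interpolate endpoints linearly. The concentration for 50% growth inhibition is given as GI50. Definition used: TGI = concentration required for complete inhibition of growth.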

Legend:
Test in all cases: NCI tumour cell line growth inhibition, 48 h
MCF7 breast = system: MCF7 breast
PC-3 prostate = system: PC-3 prostate
HL-60(TB) leukemia = system: HL-60(TB) leukemia
CCRF-CEM leukemia = system: CCRF-CEM leukemia
LOX IMVI melanoma = system: LOX IMVI melanoma
M14 melanoma = system: M14 melanoma
SR leukemia = system: SR leukemia
KM12 colon = system: KM12 colon
NCI-H23 lung = system: NCI-H23 lung
A498 renal = system: A498 renal
NCI-H522 lung = system: NCI-H522 lung
DU-145 prostate = system: DU-145 prostate
HCC-2998 colon = system: HCC-2998 colon
NCI-H226 lung = system: NCI-H226 lung
SK-MEL-5 melanoma = system: SK-MEL-5 melanoma
HCT-15 colon = system: HCT-15 colon
HOP-92 NSCLC = system: HOP-92 NSCLC
MOLT-4 leukemia = system: MOLT-4 leukemia
SN12C renal = system: SN12C renal
UACC-62 melanoma = system: UACC-62 melanoma
U251 CNS = system: U251 CNS
ACHN renal = system: ACHN renal
MDA-MB-231 breast = system: MDA-MB-231 breast
A549 NSCLC = system: A549 NSCLC
HOP-62 NSCLC = system: HOP-62 NSCLC
SF-268 CNS = system: SF-268 CNS
OVCAR-5 ovarian = system: OVCAR-5 ovarian
HOP-18 NSCLC = system: HOP-18 NSCLC
SW-620 colon = system: SW-620 colon
LXFL 529 NSCLC = system: LXFL 529 NSCLC
BT-549 breast = system: BT-549 breast
HT29 colon = system: HT29 colon
KM20L2 colon = system: KM20L2 colon
UACC-257 melanoma = system: UACC-257 melanoma
HCT-116 colon = system: HCT-116 colon
M19-MEL melanoma = system: M19-MEL melanoma
RXF 393 renal = system: RXF 393 renal
RPMI-8226 leukemia = system: RPMI-8226 leukemia
MDA-MB-435 = system: MDA-MB-435
NCI-H460 lung = system: NCI-H460 lung
K-562 leukemia = system: K-562 leukemia
OVCAR-3 ovarian = system: OVCAR-3 ovarian
OVCAR-4 ovarian = system: OVCAR-4 ovarian
DLD-1 colon = system: DLD-1 colon
DMS 114 small cell lung = system: DMS 114 small cell lung
IGROV1 ovarian = system: IGROV1 ovarian
MALME-3M melanoma = system: MALME-3M melanoma
EKVX NSCLC = system: EKVX NSCLC
CAKI-1 renal = system: CAKI-1 renal
SK-MEL-2 melanoma = system: SK-MEL-2 melanoma
COLO 205 colon = system: COLO 205 colon
TK-10 renal = system: TK-10 renal
SNB-78 CNS = system: SNB-78 CNS
SF-295 CNS = system: SF-295 CNS
SNB-75 CNS = system: SNB-75 CNS
OVCAR-8 ovarian = system: OVCAR-8 ovarian
SK-OV-3 ovarian = system: SK-OV-3 ovarian
SK-MEL-28 melanoma = system: SK-MEL-28 melanoma
DMS 273 small cell lung = system: DMS 273 small cell lung
RXF-631 renal = system: RXF-631 renal
SF-539 CNS = system: SF-539 CNS
UO-31 renal = system: UO-31 renal
SNB-19 CNS = system: SNB-19 CNS
P388/ADR leukemia = system: P388/ADR leukemia
SN12K1 renal = system: SN12K1 renal
MDA-N = system: MDA-N
T-47D breast = system: T-47D breast
HS 578T breast = system: HS 578T breast
P388 leukemia = system: P388 leukemia
NCI/ADR-RES ovarian = system: NCI/ADR-RES ovarian

Cc1c(CCCl)c(Cl)n2c(nc3ccccc32)c1C#N
TGI (MCF7 breast): 5.28 µM
TGI (PC-3 prostate): 2.4 µM
TGI (HL-60(TB) leukemia): 0.627 µM
TGI (CCRF-CEM leukemia): 3.36 µM
TGI (LOX IMVI melanoma): 0.878 µM
TGI (M14 melanoma): 3.06 µM
TGI (SR leukemia): 0.649 µM
TGI (KM12 colon): 2.54 µM
TGI (NCI-H23 lung): 2.37 µM
TGI (A498 renal): 2.83 µM
TGI (NCI-H522 lung): 1.46 µM
TGI (DU-145 prostate): 4.56 µM
TGI (HCC-2998 colon): 2.94 µM
TGI (NCI-H226 lung): 2.93 µM
TGI (SK-MEL-5 melanoma): 2.35 µM
TGI (HCT-15 colon): 1.98 µM
TGI (HOP-92 NSCLC): 2.99 µM
TGI (MOLT-4 leukemia): 0.653 µM
TGI (SN12C renal): 1.5 µM
TGI (UACC-62 melanoma): 2.51 µM
TGI (U251 CNS): 2.34 µM
TGI (ACHN renal): 2.14 µM
TGI (MDA-MB-231 breast): 17.9 µM
TGI (A549 NSCLC): > 100 µM
TGI (HOP-62 NSCLC): 4.8 µM
TGI (SF-268 CNS): 11.5 µM
TGI (OVCAR-5 ovarian): 4.1 µM
TGI (HOP-18 NSCLC): 3.95 µM
TGI (SW-620 colon): 0.801 µM
TGI (LXFL 529 NSCLC): 1.63 µM
TGI (BT-549 breast): 3.98 µM
TGI (HT29 colon): 4.35 µM
TGI (KM20L2 colon): 2.11 µM
TGI (UACC-257 melanoma): 3.07 µM
TGI (HCT-116 colon): 0.891 µM
TGI (M19-MEL melanoma): 9.76 µM
TGI (RXF 393 renal): 3 µM
TGI (RPMI-8226 leukemia): 0.385 µM
TGI (MDA-MB-435): 2.22 µM
TGI (NCI-H460 lung): 1.69 µM
TGI (K-562 leukemia): 3.34 µM
TGI (OVCAR-3 ovarian): 2.82 µM
TGI (OVCAR-4 ovarian): 3.29 µM
TGI (DLD-1 colon): 2.44 µM
TGI (DMS 114 small cell lung): 2.84 µM
TGI (IGROV1 ovarian): 3.36 µM
TGI (MALME-3M melanoma): 2.62 µM
TGI (EKVX NSCLC): 25.3 µM
TGI (CAKI-1 renal): 2.25 µM
TGI (SK-MEL-2 melanoma): 2.78 µM
TGI (COLO 205 colon): 2.47 µM
TGI (TK-10 renal): 3.84 µM
TGI (SNB-78 CNS): > 100 µM
TGI (SF-295 CNS): 4.34 µM
TGI (SNB-75 CNS): 14.1 µM
TGI (OVCAR-8 ovarian): 2.38 µM
TGI (SK-OV-3 ovarian): > 56.4 µM
TGI (SK-MEL-28 melanoma): 4.97 µM
TGI (DMS 273 small cell lung): 3.15 µM
TGI (RXF-631 renal): 2.18 µM
TGI (SF-539 CNS): 2.81 µM
TGI (UO-31 renal): 2.56 µM
TGI (SNB-19 CNS): 5.88 µM

COc1cccc2c1C(=O)c1c(O)c3c(c(O)c1C2=O)C[C@@](O)(C(C)=O)C[C@@H]3OC1CC(N(Cc2ccccc2)Cc2ccccc2)C(O)C(C)O1 (stereo partly drawn)
TGI (MCF7 breast): > 36 µM
TGI (PC-3 prostate): > 28.1 µM
TGI (P388/ADR leukemia): > 50 µM
TGI (SN12K1 renal): > 46.9 µM
TGI (MDA-N): > 23.2 µM
TGI (DU-145 prostate): > 28.1 µM
TGI (T-47D breast): > 28.1 µM
TGI (HS 578T breast): > 50 µM
TGI (MDA-MB-231 breast): > 28.1 µM
GI50 (SW-620 colon): < 0.01 µM and 0.0869 µM
GI50 (LXFL 529 NSCLC): < 0.01 µM
TGI (BT-549 breast): > 50 µM
TGI (MDA-MB-435): 14 µM
TGI (P388 leukemia): 12.3 µM
TGI (NCI/ADR-RES ovarian): > 37.5 µM
